Experimental data taken from patent US12410166B2, “Sulfonylamidine substituted compounds and their use as beta-lactamase inhibitors” (NINGXIA ACADEMY OF AGRICULTURE AND FORESTRY SCIENCES, priority 2021, dated 2025).
Structures can show the parent of a compound that is named as a salt. Where two headings read alike, the source gives them in different places.

Assays:
Experiment in all cases: MIC by broth microdilution (antibacterial and synergistic activity)
Type in all cases: cell-based
[1] = tested on: A. baumannii clinical isolate (strain 7, OXA-23, OXA-40); settings: for MIC: Acinetobacter baumannii, read-out: Antibacterial activity, MIC, inhibitor Alone
Procedure: (§1) Compounds of the present invention alone, avibactam (AVI) alone, relebactam (REL) alone, meropenem (MER) alone, imipenem (IMI) alone, and as a combination of compounds of the present invention, or avibactam or relebactam with test antibiotic (meropenem or imipenem) was tested for antimicrobial activity by determining minimum inhibitory concentration (MIC, mg/L) using the broth microdilution method according to the guidelines of the Clinical Laboratories and Standards Institute (“Methods for Dilution Antimicrobial Susceptibility Tests for Bacterial that Grow Aerobically”, Approved standard, 7th ed., Clinical and Laboratories Standards Institute (CLSI) Document M7-A8, Wayne, Pa., USA, 2009). Meropenem or imipenem as a test antibiotic compound was dissolved in DMSO, and then diluted in microbial growth medium (Mueller-Hinton Broth II, cation adjusted) resulting in a final concentration range of 0.031-64 mg/L in serial two-fold dilution. In all cases the final DMSO concentration was less than 0.5%. Bacteria were added to 96-well microtitre plates containing the serial two-fold dilutions of the compounds; the final cell density was approximately 5×10^5 colony forming units/mL (CFU/mL). Plates were incubated at 37° C. for 18-24 hours and read visually. The MIC, i.e. the lowest concentration of the test compound that inhibited visible growth of the bacteria, was recorded. The same assay conditions were used when the compounds of present invention alone, avibactam or relebactam alone (as a control), and as a combination of the present invention each compound, or avibactam or relebactam with test meropenem or imipenem antibiotic compound was tested for minimum inhibitory concentration (MIC, mg/L). While test meropenem or imipenem was serially diluted as described above, a constant concentration of avibactam, or relebactam or the present invention each compound of 4 mg/L was used.
(§2) Bacterial strains that were used to evaluate the antimicrobial activity using the MIC determination included but were not limited to E. coli clinical isolate (strain 1, TEM-1), E. coli 8739 (strain 2, CTX-M15), K. pneumoniae clinical isolate (strain 3, SHV-1), K. pneumoniae 700603 (strain 4, KPC-3, TEM-1), E. cloacae clinical isolate (strain 5, P99), E. cloacae 700323 (strain 6, AmpC), A. baumannii clinical isolate (strain 7, OXA-23, OXA-40), A. baumannii 19606 (strain 8, OXA-24), P. aeruginosa clinical isolate (strain 9, KPC-2), P. aeruginosa 9027 (strain 10, AmpC).

[2] = tested on: K. pneumoniae 700603 (strain 4, KPC-3, TEM-1); settings: for MIC: Klebsiella pneumoniae, read-out: Antibacterial activity, MIC, inhibitor Alone
Procedure: as §1, §2

[3] = tested on: E. cloacae clinical isolate (strain 5, P99); settings: for MIC: Enterobacter cloacae, read-out: Antibacterial activity, MIC, inhibitor Alone
Procedure: as §1, §2

[4] = tested on: P. aeruginosa clinical isolate (strain 9, KPC-2); settings: for MIC: Pseudomonas aeruginosa, read-out: Antibacterial activity, MIC, inhibitor Alone
Procedure: as §1, §2

[5] = tested on: K. pneumoniae clinical isolate (strain 3, SHV-1); settings: for MIC: Klebsiella pneumoniae, read-out: Antibacterial activity, MIC, inhibitor Alone
Procedure: as §1, §2

[6] = tested on: P. aeruginosa 9027 (strain 10, AmpC); settings: for MIC: Pseudomonas aeruginosa, read-out: Antibacterial activity, MIC, inhibitor Alone
Procedure: as §1, §2

[7] = tested on: E. coli clinical isolate (strain 1, TEM-1); settings: for MIC: Escherichia coli, read-out: Antibacterial activity, MIC, inhibitor Alone
Procedure: as §1, §2

[8] = tested on: A. baumannii 19606 (strain 8, OXA-24); settings: for MIC: Acinetobacter baumannii, read-out: Antibacterial activity, MIC, inhibitor Alone
Procedure: as §1, §2

[9] = tested on: E. coli 8739 (strain 2, CTX-M15); settings: for MIC: Escherichia coli, read-out: Antibacterial activity, MIC, inhibitor Alone
Procedure: as §1, §2

[10] = tested on: E. cloacae 700323 (strain 6, AmpC); settings: for MIC: Enterobacter cloacae, read-out: Antibacterial activity, MIC, inhibitor Alone
Procedure: as §1, §2

[11] = strain 7 (OXA-23/40), compound alone, no antibiotic
[12] = strain 7 (OXA-23/40), inhibitor at constant 4 mg/L
[13] = strain 4 (KPC-3, TEM-1), compound alone, no antibiotic
[14] = strain 4 (KPC-3, TEM-1), inhibitor at constant 4 mg/L
[15] = strain 5 (P99), compound alone, no antibiotic
[16] = strain 5 (P99), inhibitor at constant 4 mg/L
[17] = strain 9 (KPC-2), compound alone, no antibiotic
[18] = strain 9 (KPC-2), inhibitor at constant 4 mg/L
[19] = strain 3 (SHV-1), compound alone, no antibiotic
[20] = strain 3 (SHV-1), inhibitor at constant 4 mg/L
[21] = strain 10 (AmpC), compound alone, no antibiotic
[22] = strain 10 (AmpC), inhibitor at constant 4 mg/L
[23] = strain 1 (TEM-1), compound alone, no antibiotic
[24] = strain 1 (TEM-1), inhibitor at constant 4 mg/L
[25] = strain 8 (OXA-24), inhibitor at constant 4 mg/L
[26] = strain 6 (AmpC), compound alone, no antibiotic
[27] = strain 6 (AmpC), inhibitor at constant 4 mg/L

N=C(NS(=O)(=O)CC(F)(F)F)[C@@H]1CC[C@@H]2CN1C(=O)N2OS(=O)(=O)[O-].[Na+] [Ex. 1, Sodium (2S,5R)-7-oxo-2-(N-((2,2,2-trifluoroethyl)sulfonyl)caramimidoyl)-1,6-diazabicyclo[3.2.1]octan-6-yl sulfate]
Antibacterial activity, MIC, inhibitor Alone [1, 11]: >64 µg/mL | MIC of imipenem in combination with the inhibitor (IMI + inhibitor) [1, 12]: 0.0625 µg/mL | MIC of meropenem in combination with the inhibitor (MER + inhibitor) [1, 12]: <0.125 µg/mL | Antibacterial activity, MIC, inhibitor Alone [2, 13]: >64 µg/mL | MIC of imipenem in combination with the inhibitor (IMI + inhibitor) [2, 14]: 0.25 µg/mL | MIC of meropenem in combination with the inhibitor (MER + inhibitor) [2, 14]: <0.125 µg/mL | Antibacterial activity, MIC, inhibitor Alone [3, 15]: >64 µg/mL | MIC of imipenem in combination with the inhibitor (IMI + inhibitor) [3, 16]: 1 µg/mL | MIC of meropenem in combination with the inhibitor (MER + inhibitor) [3, 16]: <0.125 µg/mL | Antibacterial activity, MIC, inhibitor Alone [4, 17]: >64 µg/mL | MIC of imipenem in combination with the inhibitor (IMI + inhibitor) [4, 18]: 0.25 µg/mL | MIC of meropenem in combination with the inhibitor (MER + inhibitor) [4, 18]: 0.125 µg/mL | Antibacterial activity, MIC, inhibitor Alone [5, 19]: >64 µg/mL | MIC of imipenem in combination with the inhibitor (IMI + inhibitor) [5, 20]: 0.25 µg/mL | MIC of meropenem in combination with the inhibitor (MER + inhibitor) [5, 20]: 0.125 µg/mL | Antibacterial activity, MIC, inhibitor Alone [6, 21]: >64 µg/mL | MIC of imipenem in combination with the inhibitor (IMI + inhibitor) [6, 22]: 0.5 µg/mL | MIC of meropenem in combination with the inhibitor (MER + inhibitor) [6, 22]: 0.125 µg/mL | Antibacterial activity, MIC, inhibitor Alone [7, 23]: >64 µg/mL | MIC of imipenem in combination with the inhibitor (IMI + inhibitor) [7, 24]: 0.125 µg/mL | MIC of meropenem in combination with the inhibitor (MER + inhibitor) [7, 24]: <0.125 µg/mL | Antibacterial activity, MIC, inhibitor Alone ([8]; strain 8 (OXA-24), compound alone, no antibiotic): >64 µg/mL | MIC of imipenem in combination with the inhibitor (IMI + inhibitor) [8, 25]: 0.062 µg/mL | MIC of meropenem in combination with the inhibitor (MER + inhibitor) [8, 25]: 0.5 µg/mL | Antibacterial activity, MIC, inhibitor Alone ([9]; strain 2 (CTX-M15), compound alone, no antibiotic): >64 µg/mL | Antibacterial activity, MIC, inhibitor Alone [10, 26]: >64 µg/mL | MIC of imipenem in combination with the inhibitor (IMI + inhibitor) [10, 27]: 0.0625 µg/mL | MIC of meropenem in combination with the inhibitor (MER + inhibitor) [10, 27]: <0.125 µg/mL

CCS(=O)(=O)NC(=N)[C@@H]1CC[C@@H]2CN1C(=O)N2OS(=O)(=O)[O-].[Na+] [Ex. 8, Sodium (2S,5R)-2-(N-(ethylsulfonyl)carbamimidoyl)-7-oxo-1,6-diazabicyclo[3.2.1]octan-6-yl sulfate]
MIC [1, 11]: > 64 µg/mL | MIC [2, 13]: > 64 µg/mL | MIC [3, 15]: > 64 µg/mL | MIC [4, 17]: > 64 µg/mL | MIC [5, 19]: > 64 µg/mL | MIC [6, 21]: > 64 µg/mL | MIC [7, 23]: > 64 µg/mL | MIC [8]: > 64 µg/mL | MIC [9]: > 64 µg/mL | MIC [10, 26]: > 64 µg/mL

Cn1ccnc1S(=O)(=O)NC(=N)[C@@H]1CC[C@@H]2CN1C(=O)N2OS(=O)(=O)O [Ex. 19, (2S,5R)-2-(N-((1-methyl-1H-imidazol-2-yl)sulfonyl)carbamimidoyl)-7-oxo-1,6-diazabicyclo[3.2.1]octan-6-yl hydrogen sulfate]
MIC [1, 11]: > 64 µg/mL | MIC [2, 13]: > 64 µg/mL | MIC [3, 15]: > 64 µg/mL | MIC [4, 17]: > 64 µg/mL | MIC [5, 19]: > 64 µg/mL | MIC [6, 21]: > 64 µg/mL | MIC [7, 23]: > 64 µg/mL | MIC [8]: > 64 µg/mL | MIC [9]: > 64 µg/mL | MIC [10, 26]: > 64 µg/mL

COC(=O)CCS(=O)(=O)NC(=N)[C@@H]1CC[C@@H]2CN1C(=O)N2OS(=O)(=O)[O-].[Na+] [Ex. 4, Sodium (2S,5R)-2-(N-((3-methoxy-3-oxopropyl)sulfonyl)carbamimidoyl)-7-oxo-1,6-diazabicyclo[3.2.1]octan-6-ylsulfate]
MIC [1]: > 64 µg/mL | MIC [2]: > 64 µg/mL | MIC [3]: > 64 µg/mL | MIC [4]: > 64 µg/mL | MIC [5]: > 64 µg/mL | MIC [6]: > 64 µg/mL | MIC [7]: > 64 µg/mL | MIC [8]: > 64 µg/mL | MIC [9]: > 64 µg/mL | MIC [10]: > 64 µg/mL

O=C(NC1CCNCC1)[C@@H]1CC[C@@H]2CN1C(=O)N2OS(=O)(=O)O [REL, relebactam, reference compound]
MIC [1, 11]: > 64 µg/mL | MIC [2, 13]: > 64 µg/mL | MIC [3, 15]: > 64 µg/mL | MIC [4, 17]: > 64 µg/mL | MIC [5, 19]: > 64 µg/mL | MIC [6, 21]: > 64 µg/mL | MIC [7, 23]: > 64 µg/mL | MIC [8]: > 64 µg/mL | MIC [9]: > 64 µg/mL | MIC [10, 26]: > 64 µg/mL

N=C(NS(=O)(=O)c1ccccn1)[C@@H]1CC[C@@H]2CN1C(=O)N2OS(=O)(=O)O [Ex. 12, (2S,5R)-7-Oxo-2-(N-(pyridin-2-ylsulfonyl)carbamimidoyl)-1,6-diazabicyclo[3.2.1]octan-6-yl hydrogen sulfate]
MIC [1, 11]: > 64 µg/mL | MIC [2, 13]: > 64 µg/mL | MIC [3, 15]: > 64 µg/mL | MIC [4, 17]: > 64 µg/mL | MIC [5, 19]: > 64 µg/mL | MIC [6, 21]: > 64 µg/mL | MIC [7, 23]: > 64 µg/mL | MIC [8]: > 64 µg/mL | MIC [9]: > 64 µg/mL | MIC [10, 26]: > 64 µg/mL
